Assay results taken from PMC6943527, “Are the Hydantoin-1,3,5-triazine 5-HT6R Ligands a Hope to a Find New Procognitive and Anti-Obesity Drug? Considerations Based on Primary In Vivo Assays and ADME-Tox Profile In Vitro” (Molecules, 2019).
“And” between values parts separate entries of the source, which are not always exact repeats. Equal values may be shown once.

Assays:
[1] = Novel object recognition (NOR) test; assay type: in vivo, male Wistar rats; conditions: rats
Experimental: The experiments were performed on male Wistar rats (200–220 g) obtained from an accredited animal facility at the Jagiellonian University Medical College, Poland. The animals were housed in group of four in controlled environment (ambient temperature 21 ± 2 °C; relative humidity 50%–60%; 12-h light/dark cycles (lights on at 8:00). Standard laboratory food (LSM-B) and filtered water were freely available. Animals were randomly assigned to treatment groups. All the experiments were performed by two observers unaware of the studied treatment between 9:00 and 14:00 on separate groups of animals. All animals were used only once. Procedures involving animals and their care were conducted in accordance with current European Community and Polish legislation on animal experimentation. Additionally, all efforts were made to minimize animal suffering and to use only the number of animals necessary to produce reliable scientific data. […]
The animals explored the objects by looking, licking, sniffing or touching the object but not when leaning against, standing or sitting on the object. […] The exploration time of the objects was measured by blind experimenter. Based on exploration time (E) of the two objects during T2, the discrimination index (DI) was calculated according to the formula: DI = (EB − EA)/(EA + EB). […]

[2] = Parallel artificial membrane permeability assay (PAMPA)
[3] = Metabolic stability and metabolic pathways in human liver microsomes
Experimental: The pharmacokinetic parameters of compounds were estimated by using human liver microsomes (HLMs) (Sigma-Aldrich, St. Louis, MO, USA). The t1/2 values and intrinsic clearances (CLint) were calculated with IS by using the protocols and formulas proposed by Obach [38]. […] VL was used as the reference unstable drug.

[4] = target: D2; parameters: method as in PMID 30282913; conditions: radioligand binding, average of at least two independent experiments; read-out: Ki D2 [3H]-Raclopride; cited from earlier work
[5] = tested on: human serum albumin (HSA) and α1-acid glycoprotein (AGP); assay: Plasma protein binding, TRANSIL XL PPB assay
Experimental: (§3) The immobilized HSA and AGP used in this study was included in the commercial test TRANSIL^XL PPB (plasma protein binding) assay.
(§4) The study was performed with use of the commercial TRANSIL^XL PPB Assay (Sovicell, Leipzig, Germany). The test was performed according to recommendations from the protocol provided by the manufacturer. […] Next, the plate was centrifugated at 750 g for 10 min. The supernatants were collected and analyzed by LC/MS.
(§5) The total fraction bound was estimated by:(3) fb=1−1/1+[HSA]/KDHSA+[AGP]/KDAGP

[6] = Plasma protein binding, TRANSIL XL PPB assay; conditions: human, immobilized HSA and AGP at 24:1 (TRANSIL XL PPB assay)
Experimental: as §3, §4, §5

[7] = target: 5-HT7; parameters: method as in PMID 30282913; conditions: radioligand binding, average of at least two independent experiments; read-out: Ki 5-HT7 [3H]-5-CT; cited from earlier work
[8] = tested on: Caco-2 cells; assay: Caco-2 permeability assay; assay type: in vitro ADME
Experimental: (§1) The Caco-2 (ATCC® HTB-37^TM) cell line was purchased from American Type Culture Collection (ATCC) (Manassas, VG, USA). The cells were cultivated in Dulbecco’s Modified Eagle’s Medium (DMEM) supplemented with 10% fetal bovine serum (FBS) in a humidified atmosphere of 5% CO2. The medium was changed every two days, and the cells were subcultured at 70%–80% confluence. […] The inserts were pretreated first with 50 µL of the medium for two minutes. Next, the 200 µL of cells were seeded at […] concentration per insert in apical compartment, whereas 600 µL was added to the basolateral one. […] TEER (transepithelial electrical resistance) measurements was started from 18 days after seeding by Millicell ERS-2 Volt-Ohm Meter (Merck Millipore, Burlington, MA, USA). […] Then, the monolayer was rinsed with HBSS (Hank’s balanced salt solution) and KMP-10, and the highly permeable reference CFN was added at a 10 µM concentration with the HBSS into the apical chambers. The 600 µL of HBSS was added to the basolateral compartments. Lucifer yellow (5 µM) was also added to the apical chambers as the membrane integrity marker. The plate was placed in the orbital shaker (60 rpm) for 2 h at 37 °C. The compounds’ concentrations in apical and basolateral wells were analyzed using the UPLC-MS method with IS. To confirm the membrane integrity, the fluorescence of lucifer yellow was measured in basolateral compartment by EnSpire multiplate reader (Perkin Elmer, Waltham, MA, USA).
(§2) The apparent permeability Papp was calculated from two experiments according to the following formula [34]:Papp= dc/dt × V/(A × C0)(1) where: • dc/dt—the change in concentration in the receiving compartment over time • V—volume of the solution in the receiving compartment (mL) • A—surface area of the membrane (cm^2) • C0—the initial concentration in the donor compartment (µM).

[9] = Caco-2 permeability assay; assay type: in vitro ADME; conditions: human, Caco-2; 10 µM in apical chamber, 2 h, 37 °C, two experiments; read-out: Caco-2 Papp ± SD
Experimental: as §1, §2

Structure (SMILES): CN1CCN(c2nc(N)nc(CN3C(=O)NC(C)(c4ccc5ccccc5c4)C3=O)n2)CC1 (stereo not drawn) [KMP-10, 3-((4-amino-6-(4-methylpiperazin-1-yl)-1,3,5-triazin-2-yl)methyl)-5-methyl-5-(naphthalen-2-yl)imidazolidine-2,4-dione]
- Memory deficits induced by scopolamine in NOR test ([1]; full dose-range 0.3–3 mg/kg i.p.): significantly and dose-dependently reversed
- Memory impairment induced by MK-801 in NOR test, discrimination index ([1]; some activity at 1 mg/kg i.p.): did not reach a statistically significant level
- Papp at 5 h, 200 µM ([2]; PAMPA, pH 7.4): 3.76 ± 0.76 ×10⁻⁶ cm/s
- PAMPA permeability, fold weaker than caffeine ([2]; vs caffeine): ~ 4 fold and 4 fold
- Metabolic Pathway, metabolite M1 ([3]; HLMs, 120 min incubation): demethylation
- Metabolic Pathway, metabolite M2 ([3]; HLMs, 120 min incubation): hydroxylation
- Metabolic Pathway, metabolite M3 ([3]; HLMs, 120 min incubation): demethylation and hydroxylation
- Metabolic Pathway, metabolite M4 ([3]; HLMs, 120 min incubation): hydroxylation and dehydrogenation
- Intrinsic Clearance CLint ([3]; HLMs, reactions terminated at 5, 15, 30 and 45 min): 3.74 mL/min/kg
- t1/2, fold longer than verapamil ([3]; HLMs, vs unstable reference verapamil): ~ 8 fold
- CLint scaled ([3]; human, liver microsomes): 3.74 mL/min/kg
- half-life ([3]; human, liver microsomes, Half-Life t1/2, HLMs, reactions terminated at 5, 15, 30 and 45 min): 3.98 h
- half-life ([3]; human, liver microsomes, t1/2 in vitro, HLMs, as restated in comparison to SUVN-502): > 3 h
- Ki [4]: 4.25 µM
- PPB KD ([5]; immobilized HSA and AGP 24:1, 5 µM compound): 112 µM
- PPB KD, fold higher than warfarin ([5]; vs warfarin): ~ 10 fold
- fraction unbound at 12 min, 5 µM [6]: 0.155
- Ki [7]: 0.514 µM
- Caco-2 permeability classification ([8]; bands: Papp <2 low, 2-20 moderate, >20 × 10^−6 cm/s high): moderate permeability
- Caco-2 absorption, fold weaker than caffeine ([8]; vs caffeine): 3 fold
- Papp at 2 h, 10 µM [9]: 6.27 ± 0.3 ×10⁻⁶ cm/s
